Reference: article PMC6406907, “A H2AX–CARP-1 Interaction Regulates Apoptosis Signaling Following DNA Damage” (Cancers, 2019)

Tests used:
Assay type in all cases: cell-based, human
[1] = system: CARP-1, phospho-JNK1/2, phospho-H2AX; assay: Western blot of CARP-1, phospho-JNK1/2, γH2AX in HeLa; conditions: 10 μM, WB
Experimental: (§1) Logarithmically growing cells were either untreated or treated with different agents for various time periods. The cells were lysed to prepare protein extracts. IP was carried out by incubating approximately 1 mg of the protein lysate with appropriate antibodies. The immunoprecipitates were then analyzed by SDS-PAGE, followed by WB with respective, interacting protein. For Gst-pulldown, Gst-H2AX or various His-TAT-HA-tagged CARP-1 peptides were generated in Escherichia coli (E. coli) BL21 cells essentially as described by us previously. Briefly, the competent E. coli BL-21 (DE3) pLysS cells were transformed separately with various recombinant pGEX-4T-1 or pTAT-HA constructs. The transformed cells were then subjected to selection by combined presence of ampicillin and chloramphenicol; various isolates for each transformation were obtained and bacterial lysates were characterized for expression of fusion peptides. Cells from each isolate were grown in 4 mL of LB medium containing ampicillin only until the optical density (OD)600 reached 0.4–0.8. […]
(§2) Here, we utilized human TNBC MDA-MB-468 and human cervical cancer HeLa cells to conduct an MTT-based dose-response analysis using Adriamycin and CFM compounds. […] The cell lysates from the control, untreated, and treated cells were analyzed by WB for expression of CARP-1, phospho-JNK1/2, phospho-H2AX, and poly ADP ribose polymerase (PARP) proteins. […]

[2] = system: CARP-1 interaction with γH2AX; assay: Co-immunoprecipitation of myc-His-CARP-1 with γH2AX; conditions: for interaction of wild-type CARP-1 with γH2AX: MDA-MB-468 cells expressing myc-His-tagged CARP-1 (WT), IP/WB; for interaction of CARP-1 (Δ600–650) with γH2AX: in-frame deletion of CARP-1 amino acids 600–650, IP/WB
Experimental: Logarithmically growing cells were either untreated or treated with different agents for various time periods. The cells were lysed to prepare protein extracts. IP was carried out by incubating approximately 1 mg of the protein lysate with appropriate antibodies. The immunoprecipitates were then analyzed by SDS-PAGE, followed by WB with respective, interacting protein. For Gst-pulldown, Gst-H2AX or various His-TAT-HA-tagged CARP-1 peptides were generated in Escherichia coli (E. coli) BL21 cells essentially as described by us previously. Briefly, the competent E. coli BL-21 (DE3) pLysS cells were transformed separately with various recombinant pGEX-4T-1 or pTAT-HA constructs. The transformed cells were then subjected to selection by combined presence of ampicillin and chloramphenicol; various isolates for each transformation were obtained and bacterial lysates were characterized for expression of fusion peptides. Cells from each isolate were grown in 4 mL of LB medium containing ampicillin only until the optical density (OD)600 reached 0.4–0.8. Expression of fusion peptides was induced over 2–4 h incubation periods after Isopropyl β-D-1-thiogalactopyranoside (IPTG) addition. The cells were harvested, and pellets were stored at −80 °C overnight. The cell pellets were then lysed in 100–400 μL of bacterial protein extraction reagent (BPER) buffer (Thermo Scientific, Waltham, MA, USA, Cat# 78243) containing 2 μL/mL of 10 units/μL DNAse I (Boehringer Mannheim, Fremont, CA, USA, Cat # 776–785), and supernatant checked for expression of respective fusion peptides by WB. Following confirmation of expression, 5–20 μL of lysate expressing Gst fusion protein was first incubated with 20 μL of precleared glutathione sepharose in a final volume of 100 μL at 4 °C for 2 h with constant rotation. The sepharose beads were spun at 800× g for 2 min, and the pellet was washed 2–4 times with 100–200 μL of RIPA buffer (20 mM Tris-HCl (pH 7.5), 150 mM NaCl, 1 mM Na2EDTA, 1 mM EGTA, 1% NP-40, 1% sodium deoxycholate, 2.5 mM sodium pyrophosphate, 1 mM β-glycerophosphate, 1 mM Na3VO4, 1 µg/mL leupeptin) with 0.5 M NaCl. The beads were spun again as above, and mixed with 5–20 μL of E. coli lysate expressing His-TAT-HA CARP-1 peptides. The reactions were incubated further at 4 °C for 2 h with constant rotation. The peptide-bound sepharose beads were pelleted and washed with 100–200 μL of RIPA buffer with 0.1 M NaCl for 2–4 washes. In some cases, additional washes with 0.05 M NaCl buffer were carried out. After the final wash, the sepharose–protein complexes were spun, and then re-suspended in SDS loading buffer for electrophoresis on 12–15% SDS PAGE, followed by WB with appropriate antibodies.
We next carried out mutagenesis-based studies to map the interacting epitopes of CARP-1 and H2AX proteins. […]

[3] = system: CARP-1, phospho-JNK1/2, phospho-H2AX; assay: Western blot of CARP-1, phospho-JNK1/2, γH2AX in UOK 262; conditions: 10 μM, UOK 262, WB
Experimental: as §1, §2

SMILES	expression of CARP-1, phospho-JNK1/2, phospho-H2AX [1]	interaction of wild-type CARP-1 with γH2AX [2]	interaction of CARP-1 (Δ600–650) with γH2AX [2]	expression of CARP-1, phospho-JNK1/2, phospho-H2AX [3]
COc1cccc2c1C(=O)c1c(O)c3c(c(O)c1C2=O)C[C@@](O)(C(=O)CO)C[C@@H]3O[C@H]1C[C@H](N)[C@H](O)[C@H](C)O1 [Adriamycin, doxorubicin, reference compound]	stimulated expression of CARP-1, phospho-JNK1/2, and phospho-H2AX in a time-dependent manner	robust interaction of wild-type CARP-1 with γH2AX	abrogated CARP-1 interaction with γH2AX	stimulated expression of CARP-1, phospho-JNK1/2, and phospho-H2AX in a time-dependent manner
O=C1N(Cc2ccccc2Cl)c2ccccc2C12NN=C(c1cccc(Cl)c1)S2 (centres unmarked) [CFM-4.16]	stimulated expression of CARP-1, phospho-JNK1/2, and phospho-H2AX in a time-dependent manner	robust interaction of wild-type CARP-1 with γH2AX	abrogated CARP-1 interaction with γH2AX	stimulated expression of CARP-1, phospho-JNK1/2, and phospho-H2AX in a time-dependent manner
